Assay results: patent US7557215B2, “Anthraquinone compounds as anti cancer compounds” (Somanta Limited, priority 2003, dated 2009)
Read-outs that look alike come from different tables or passages of the source.

Legend:
[1] = test system: cisplatin resistant variant (A2780/cp70) xenograft; assay: Tumour doubling time, cisplatin resistant variant xenograft A2780/cp70 in mice; type: in vivo
Source text: (§1) Compound HAQ71, with the lowest RF (0.2) of the panel of compounds tested against the cisplatin resistant cells and its chloropropyl-substituted analogue, was selected for in vivo investigation in mice using tumour A2780 and A2780/cp70 cells grown as xenografts in mice. Significant anticancer activity in vivo of HAQ71 and CAQ75 was shown; both compounds exerting similar tumour growth delay in human xenografted wild-type and acquired cisplatin resistant tumours (A2780/cp70). The latter is very refractory to cisplatin and other covalent binding agents and has been characterised with elevated levels of glutathione, alterations in drug uptake/efflux and DNA repair mechanisms including mismatch repair deficiency.

A2780/cp70 = assay: Inhibition of cell growth, cisplatin resistant A2780/cp70 cell line; type: cell-based, human; settings: text b280, b283
A2780 [2] = assay: Inhibition of cell growth, A2780 wild type ovarian carcinoma cell line
[3] = test system: human ovarian tumour xenograft (A2780); assay: Tumour doubling time, human ovarian tumour xenograft A2780 in mice; type: in vivo
Source text: as §1

A2780 [4] = test system: A2780

Structure (SMILES)	doubling time (days) of tumour xenograft ([1]; 16 mg/kg i.p.) [days]	tumour growth delay (%) ([1]; 16 mg/kg i.p.)	RF against the cisplatin resistant cells (A2780/cp70)	fold decrease in cytotoxicity on substitution of OH with Cl (HAQ71 vs CAQ75) (A2780 [2]; CAQ75 compared with HAQ71) [fold]	doubling time (days) of tumour xenograft ([3]; 16 mg/kg i.p.) [days]	tumour doubling time, percent ([3]; 16 mg/kg i.p.) [%]	doubling time (days) of tumour xenograft ([1]; 20 mg/kg i.p.) [days]	tumour growth delay (%) ([1]; 20 mg/kg i.p.)	IC50 (A2780 [2]; read-out: Inhibition of cell growth (IC50, nM) A2780, A2780, Table 1) [nM]	doubling time (days) of tumour xenograft ([3]; 20 mg/kg i.p.) [days]	tumour doubling time, percent ([3]; 20 mg/kg i.p.) [%]	IC50 (A2780 [2]; read-out: Growth Inhibition (IC50) A2780, A2780, Table 4) [nM]	cytotoxicity ratio (CR=IC50 of alkylaminoanthraquinone-di-N-oxide/IC50 alkylaminoanthraquinone) (A2780 [4])
CN(C)CCNc1ccc(NCCN2CCCCC2CCl)c2c1C(=O)c1c(O)ccc(O)c1C2=O (centres unmarked) [CAQ75, 1-{[2-(2-Chloromethylpiperidin-1-yl)ethyl]amino}-4-{[(2-dimethylamino)ethyl]amino}-5,8-dihydroxyanthracene-9,10-dione]	4.18 ± 0.27	166	0.4	> 10	5.83 ± 0.40	198	–	–	–	–	–	–	–
CN(C)CCNc1ccc(NCCN2CCCC(CO)C2)c2c1C(=O)c1c(O)ccc(O)c1C2=O (centres unmarked) [HAQ71, 1-[(2-Dimethylamino)ethylamino]-4-[2-(3-hydroxymethyl-piperidin-1-yl)ethylamino]-5,8-dihydroxy-anthracene-9,10-dione]	–	–	0.2	–	–	–	4.33 ± 0.16	172	8.4	5.23 ± 0.39	177	–	–
C[N+](C)([O-])CCNc1ccc(NCC[N+](C)(C)[O-])c2c1C(=O)c1c(O)ccc(O)c1C2=O [AQ4N]	–	–	–	–	–	–	–	–	–	–	–	> 100000	17,000
